Data as given in PMC10008561 (Nature Communications, 2023).
Where “and” joins values, the source holds several entries; their conditions need not be identical. Identical values can stand only once. Like-named read-outs stand apart in the source and are kept apart here.

Legend:
human KOR (GoA) [1] = molecular target: T1, human KOR (GoA) (Homo sapiens, UniProt P41145); test: cell-based
T1 construct: expressed in transfected cells; host or cells: HEK293T

human KOR (GoA) [2] = molecular target: T2, human KOR (GoA) (Homo sapiens, UniProt P41145, D105A); test: cell-based
T2 construct: expressed in transfected cells; host or cells: HEK293T

human KOR (GoA) [3] = molecular target: T3, human KOR (GoA) (Homo sapiens, UniProt P41145, D155A); test: cell-based
T3 construct: expressed in transfected cells; host or cells: HEK293T

human KOR (GoA) [4] = molecular target: T4, human KOR (GoA) (Homo sapiens, UniProt P41145, D266A); test: cell-based
T4 construct: expressed in transfected cells; host or cells: HEK293T

human KOR (GoA) [5] = molecular target: T5, human KOR (GoA) (Homo sapiens, UniProt P41145, D334A); test: cell-based
T5 construct: expressed in transfected cells; host or cells: HEK293T

human KOR (GoA) [6] = molecular target: T6, human KOR (GoA) (Homo sapiens, UniProt P41145, E297A); test: cell-based
T6 construct: expressed in transfected cells; host or cells: HEK293T

human KOR (GoA) [7] = molecular target: T7, human KOR (GoA) (Homo sapiens, UniProt P41145, F114L); test: cell-based
T7 construct: expressed in transfected cells; host or cells: HEK293T

human KOR (GoA) [8] = molecular target: T8, human KOR (GoA) (Homo sapiens, UniProt P41145, F283A); test: cell-based
T8 construct: expressed in transfected cells; host or cells: HEK293T

human KOR (GoA) [9] = molecular target: T9, human KOR (GoA) (Homo sapiens, UniProt P41145, G319L); test: cell-based
T9 construct: expressed in transfected cells; host or cells: HEK293T

human KOR (GoA) [10] = molecular target: T10, human KOR (GoA) (Homo sapiens, UniProt P41145, K200A); test: cell-based
T10 construct: expressed in transfected cells; host or cells: HEK293T

human KOR (GoA) [11] = molecular target: T11, human KOR (GoA) (Homo sapiens, UniProt P41145, K227A); test: cell-based
T11 construct: expressed in transfected cells; host or cells: HEK293T

human KOR (GoA) [12] = molecular target: T12, human KOR (GoA) (Homo sapiens, UniProt P41145, L253A); test: cell-based; conditions: HEK-293T
T12 construct: expressed in transfected cells; host or cells: HEK293T

human KOR (GoA) [13] = molecular target: T13, human KOR (GoA) (Homo sapiens, UniProt P41145, N322A); test: cell-based
T13 construct: expressed in transfected cells; host or cells: HEK293T

human KOR (GoA) [14] = molecular target: T14, human KOR (GoA) (Homo sapiens, UniProt P41145, N326A); test: cell-based
T14 construct: expressed in transfected cells; host or cells: HEK293T

human KOR (GoA) [15] = molecular target: T15, human KOR (GoA) (Homo sapiens, UniProt P41145, Q115N); test: cell-based
T15 construct: expressed in transfected cells; host or cells: HEK293T

human KOR (GoA) [16] = molecular target: T16, human KOR (GoA) (Homo sapiens, UniProt P41145, R170A); test: cell-based
T16 construct: expressed in transfected cells; host or cells: HEK293T

human KOR (GoA) [17] = molecular target: T17, human KOR (GoA) (Homo sapiens, UniProt P41145, R257A); test: cell-based
T17 construct: expressed in transfected cells; host or cells: HEK293T

human KOR (GoA) [18] = molecular target: T18, human KOR (GoA) (Homo sapiens, UniProt P41145, R271A); test: cell-based
T18 construct: expressed in transfected cells; host or cells: HEK293T

human KOR (GoA) [19] = molecular target: T19, human KOR (GoA) (Homo sapiens, UniProt P41145, R274A); test: cell-based
T19 construct: expressed in transfected cells; host or cells: HEK293T

human KOR (GoA) [20] = molecular target: T20, human KOR (GoA) (Homo sapiens, UniProt P41145, T94V); test: cell-based
T20 construct: expressed in transfected cells; host or cells: HEK293T

human KOR (β-arrestin 1) = molecular target: T21, human KOR (β-arrestin 1) (Homo sapiens, UniProt P41145, N141A); test: cell-based; conditions: HEK-293T
T21 construct: expressed in transfected cells; host or cells: HEK293T

MOR = molecular target: T22, MOR (Homo sapiens, UniProt P35372); test: BRET-Gi1 protein activation; type: cell-based
T22 construct: expressed in transfected cells; host or cells: HEK293

KOR [21] = type: cell-based, human
KOR [22] = conditions: ERK activation versus p38 activation; cited from earlier work
human KOR = human KOR (Homo sapiens, UniProt P41145); test: cell-based; parameters: expressed in transfected cells; host or cells: HEK 293T (ATCC, CRL-3216); conditions: HTLA
KOR K227A = KOR K227A (Homo sapiens, UniProt P41145, K227A); type: cell-based; parameters: TEV cleavage site (C); tTA transcription factor (C); expressed in transfected cells; host or cells: HTLA cells; conditions: Log [Drug]
[23] = read-out: KOR WT_Arrestin response (Figure S4D)
[24] = read-out: Tango response (Figure S4C)

T1 sequence (P41145 whole entry): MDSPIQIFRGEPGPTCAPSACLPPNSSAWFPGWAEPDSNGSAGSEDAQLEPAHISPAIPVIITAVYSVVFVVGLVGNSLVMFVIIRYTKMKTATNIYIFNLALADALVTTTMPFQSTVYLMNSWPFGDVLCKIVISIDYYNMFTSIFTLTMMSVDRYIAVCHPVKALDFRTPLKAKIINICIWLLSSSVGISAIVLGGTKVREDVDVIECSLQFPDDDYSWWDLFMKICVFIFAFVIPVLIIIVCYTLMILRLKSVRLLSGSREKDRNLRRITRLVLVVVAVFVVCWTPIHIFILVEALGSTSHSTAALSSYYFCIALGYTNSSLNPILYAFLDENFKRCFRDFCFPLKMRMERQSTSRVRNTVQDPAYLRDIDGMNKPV
Chain of human KOR (P41145 whole entry): as above
T16 sequence (P41145 whole entry R170A): as the sequence (P41145 whole entry) above, with R170A counted along it
T3 sequence (P41145 whole entry D155A): as the sequence (P41145 whole entry) above, with D155A counted along it
Chain of KOR K227A (P41145 whole entry K227A): as the sequence (P41145 whole entry) above, with K227A counted along it
Chain of KOR K227A (P32121 whole entry partner): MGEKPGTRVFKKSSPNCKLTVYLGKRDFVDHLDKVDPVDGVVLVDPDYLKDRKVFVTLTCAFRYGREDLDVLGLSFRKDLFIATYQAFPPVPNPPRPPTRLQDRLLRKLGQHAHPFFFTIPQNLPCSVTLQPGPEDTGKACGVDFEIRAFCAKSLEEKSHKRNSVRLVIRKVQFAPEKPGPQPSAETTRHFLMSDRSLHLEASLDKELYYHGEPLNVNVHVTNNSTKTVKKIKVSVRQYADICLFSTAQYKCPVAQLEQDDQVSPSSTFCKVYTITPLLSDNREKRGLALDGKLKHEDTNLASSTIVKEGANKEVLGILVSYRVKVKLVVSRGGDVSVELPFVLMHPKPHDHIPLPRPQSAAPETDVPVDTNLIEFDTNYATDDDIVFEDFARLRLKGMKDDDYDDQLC
T10 sequence (P41145 whole entry K200A): as the sequence (P41145 whole entry) above, with K200A counted along it
T20 sequence (P41145 whole entry T94V): as the sequence (P41145 whole entry) above, with T94V counted along it
T7 sequence (P41145 whole entry F114L): as the sequence (P41145 whole entry) above, with F114L counted along it
T6 sequence (P41145 whole entry E297A): as the sequence (P41145 whole entry) above, with E297A counted along it
T4 sequence (P41145 whole entry D266A): as the sequence (P41145 whole entry) above, with D266A counted along it
T13 sequence (P41145 whole entry N322A): as the sequence (P41145 whole entry) above, with N322A counted along it
T5 sequence (P41145 whole entry D334A): as the sequence (P41145 whole entry) above, with D334A counted along it
T15 sequence (P41145 whole entry Q115N): as the sequence (P41145 whole entry) above, with Q115N counted along it
T9 sequence (P41145 whole entry G319L): as the sequence (P41145 whole entry) above, with G319L counted along it
T19 sequence (P41145 whole entry R274A): as the sequence (P41145 whole entry) above, with R274A counted along it
T18 sequence (P41145 whole entry R271A): as the sequence (P41145 whole entry) above, with R271A counted along it
T17 sequence (P41145 whole entry R257A): as the sequence (P41145 whole entry) above, with R257A counted along it
T11 sequence (P41145 whole entry K227A): as the sequence (P41145 whole entry) above, with K227A counted along it
T8 sequence (P41145 whole entry F283A): as the sequence (P41145 whole entry) above, with F283A counted along it
T14 sequence (P41145 whole entry N326A): as the sequence (P41145 whole entry) above, with N326A counted along it
T22 sequence (P35372 whole entry): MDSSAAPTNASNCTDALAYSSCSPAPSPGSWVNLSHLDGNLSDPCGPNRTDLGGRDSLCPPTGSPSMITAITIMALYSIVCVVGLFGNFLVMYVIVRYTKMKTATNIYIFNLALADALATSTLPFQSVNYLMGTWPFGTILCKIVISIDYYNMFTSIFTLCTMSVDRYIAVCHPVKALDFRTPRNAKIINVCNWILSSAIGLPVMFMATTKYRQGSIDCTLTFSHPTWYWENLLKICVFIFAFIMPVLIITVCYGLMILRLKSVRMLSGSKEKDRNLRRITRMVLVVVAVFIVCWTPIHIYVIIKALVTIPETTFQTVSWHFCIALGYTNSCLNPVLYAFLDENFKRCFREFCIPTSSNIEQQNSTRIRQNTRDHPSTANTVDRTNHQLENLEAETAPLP
T12 sequence (P41145 whole entry L253A): as the sequence (P41145 whole entry) above, with L253A counted along it
T21 sequence (P41145 whole entry N141A): as the sequence (P41145 whole entry) above, with N141A counted along it
T2 sequence (P41145 whole entry D105A): as the sequence (P41145 whole entry) above, with D105A counted along it

## CN(C(=O)/C=C/c1ccoc1)[C@@H]1CC[C@@]2(O)[C@H]3Cc4ccc(O)c5c4[C@@]2(CCN3CC2CC2)[C@H]1O5 [Nalfurafine, nalfurafine]
Human KOR (GoA) [1]
  Emax%: 98.31%
  FC vs wild type: 1
Human KOR (GoA) [1]; HEK-293T
  Emax: 98.7%
Human KOR (GoA) [2]
  FC vs wild type: 110
Human KOR (GoA) [3]
  FC vs wild type: 9 and < 10
Human KOR (GoA) [3]; HEK-293T
  Emax: 95.7%
Human KOR (GoA) [4]
  FC vs wild type: 132
Human KOR (GoA) [4]; HEK-293T
  Emax: 108%
Human KOR (GoA) [5]
  FC vs wild type: 18
Human KOR (GoA) [5]; HEK-293T
  Emax: 96.9%
Human KOR (GoA) [6]
  FC vs wild type: 2
Human KOR (GoA) [6]; HEK-293T
  Emax: 98.9%
Human KOR (GoA) [7]
  FC vs wild type: 40
Human KOR (GoA) [7]; HEK-293T
  Emax: 67.4%
Human KOR (GoA) [8]
  FC vs wild type: 13
Human KOR (GoA) [8]; HEK-293T
  Emax: 89.5%
Human KOR (GoA) [9]
  FC vs wild type: 20
Human KOR (GoA) [9]; HEK-293T
  Emax: 101%
Human KOR (GoA) [10]
  FC vs wild type: 8
Human KOR (GoA) [10]; HEK-293T
  Emax: 91.4%
Human KOR (GoA) [11]
  FC vs wild type: 1
Human KOR (GoA) [11]; HEK-293T
  Emax: 107%
Human KOR (GoA) [12]
  Emax: 109%
Human KOR (GoA) [13]
  FC vs wild type: 100
Human KOR (GoA) [13]; HEK-293T
  Emax: 91.3%
Human KOR (GoA) [14]
  FC vs wild type: 4
Human KOR (GoA) [14]; HEK-293T
  Emax: 103%
Human KOR (GoA) [15]
  FC vs wild type: 24
Human KOR (GoA) [15]; HEK-293T
  Emax: 65.8%
Human KOR (GoA) [16]
  FC vs wild type: 6 and ~10
Human KOR (GoA) [16]; HEK-293T
  Emax: 86.9%
Human KOR (GoA) [17]
  FC vs wild type: 14 and 10
Human KOR (GoA) [18]
  FC vs wild type: 135
Human KOR (GoA) [18]; HEK-293T
  Emax: 107%
Human KOR (GoA) [19]
  FC vs wild type: 479
Human KOR (GoA) [19]; HEK-293T
  Emax: 99.5%
Human KOR (GoA) [20]
  FC vs wild type: 1
Human KOR (GoA) [20]; HEK-293T
  Emax: 99.7%
Human KOR (β-arrestin 1)
  Emax: 91.3%
MOR
  EC50: 5.13 nM
KOR [21]
  ΔΔLog τ/KA (95% confidence interval): 0.78 (0.65 to 0.91)
KOR [22]
  bias factor toward G protein signaling: 200
Human KOR
  Emax: 100 ± 5%
Human KOR; [23]
  activation at 3.162 pM: 21.6%
  activation at 10 pM: 33.5%
  activation at 31.62 pM: 37.7%
  activation at 0.0001 µM: 65.6%
  activation at 0.001 µM: 67.9%
  activation at 0.01 µM: 76.6%
  activation at 0.1 µM: 97.1%
  activation at 1 µM: 106%
  activation at […]: 68.4% and 74.4% and 96.9% and 96.5%
Human KOR; read-out: Tango response
  activation at 10 pM: 21.8%
  activation at 31.62 pM: 35.1%
  activation at 0.0001 µM: 39.8%
  activation at 0.001 µM: 74.2%
  activation at 0.01 µM: 80.9%
  activation at 1 µM: 106%
  activation at […]: 71% and 100%
Human KOR; [24]
  activation at 0.0001 µM: 36.1%
  activation at 0.001 µM: 74.1%
  activation at 0.1 µM: 87.2%
  activation at 1 µM: 87.7%
  activation at 10 µM: 121%
  activation at […]: 77.4% and 111%
KOR K227A; M -6, replicate values
  KOR K227A_Arrestin response (Figure S4D): 101.315 and 102.717
KOR K227A; M -6.5, replicate values
  KOR K227A_Arrestin response (Figure S4D): 105.822 and 93.8848 and 97.1199
KOR K227A; M -7, replicate values
  KOR K227A_Arrestin response (Figure S4D): 91.3062 and 96.8492 and 89.7833
KOR K227A; M -7.5, replicate values
  KOR K227A_Arrestin response (Figure S4D): 70.8658 and 86.1016
KOR K227A; M -8, replicate values
  KOR K227A_Arrestin response (Figure S4D): 84.9439 and 77.9998
KOR K227A; M -8.5, replicate values
  KOR K227A_Arrestin response (Figure S4D): 65.7403 and 77.6179 and 69.9994
KOR K227A; M -9, replicate values
  KOR K227A_Arrestin response (Figure S4D): 59.6373 and 67.8004 and 59.0282
KOR K227A; M -9.5, replicate values
  KOR K227A_Arrestin response (Figure S4D): 49.3052 and 47.5598 and 61.4935
KOR K227A; M -10, replicate values
  KOR K227A_Arrestin response (Figure S4D): 39.6619 and 44.8012 and 31.3899
KOR K227A; M -10.5, replicate values
  KOR K227A_Arrestin response (Figure S4D): 20.4503 and 25.5006 and 21.705
KOR K227A; M -11, replicate values
  KOR K227A_Arrestin response (Figure S4D): 23.8027 and 10.0134 and 11.9765
KOR K227A; M -12, replicate values
  KOR K227A_Arrestin response (Figure S4D): 12.7008 and 13.5043
KOR K227A; M -12.5, replicate values
  KOR K227A_Arrestin response (Figure S4D): 6.071 and 3.454 and 8.161
KOR K227A; M -13, replicate values
  KOR K227A_Arrestin response (Figure S4D): 5.581 and 8.377 and 4.789
KOR K227A; M -14, replicate values
  KOR K227A_Arrestin response (Figure S4D): 0.5358 and 5.464 and 0.3918
